Holding throughout (format): binding
In assay [1] the target is T1, SwHKA (hydroxyketoacid aldolase from Sphingomonas wittichii RW1) (Rhizorhabdus wittichii, UniProt A0A9J9HGY6, F210W).
T1 construct: gene Swit_5035; N-terminal His6-tag, E. coli BL21(DE3), 251 residues per monomer, homohexamer (trimer of domain-swapped dimers), divalent metal dependent
As to the kind of experiment: X-ray crystal structure, […] A, soaked crystal. To be noted: MgCl2 soak; bound in monomer B only; PDB id printed as 7OBU in the text but 7O87 (as F201W-HPA) in the Figure 2 legend.

Assay [2] deals with T2, SwHKA (hydroxyketoacid aldolase from Sphingomonas wittichii RW1) (Rhizorhabdus wittichii, UniProt A0A9J9HGY6, S116C).
T2 construct: gene Swit_5035; N-terminal His6-tag, E. coli BL21(DE3), 251 residues per monomer, homohexamer (trimer of domain-swapped dimers), divalent metal dependent
As to the kind of experiment: nanoDSF melting temperature. To be noted: absolute Tm, not a shift; MgCl2 10 mM, hydroxypyruvate 20 mM, Hepes 20 mM pH 7.5.

The target of assay [3] is T3, SwHKA (hydroxyketoacid aldolase from Sphingomonas wittichii RW1) (Rhizorhabdus wittichii, UniProt A0A9J9HGY6, S116A).
T3 construct: gene Swit_5035; N-terminal His6-tag, E. coli BL21(DE3), 251 residues per monomer, homohexamer (trimer of domain-swapped dimers), divalent metal dependent
Description: X-ray crystal structure. To be noted: bound to the active-state metal, distorted geometry.

Assay [4] addresses T4, SwHKA (hydroxyketoacid aldolase from Sphingomonas wittichii RW1) (Rhizorhabdus wittichii, UniProt A0A9J9HGY6).
T4 construct: gene Swit_5035; N-terminal His6-tag, E. coli BL21(DE3), 251 residues per monomer, homohexamer (trimer of domain-swapped dimers), divalent metal dependent
Description: X-ray crystal structure. To be noted: with hydroxypyruvate in the active site; H-bonds to R69 and R120'.

By Tm is commonly meant the temperature at which the thermal transition is half complete.

T3 sequence (A0A9J9HGY6 whole entry S116A, the tested form may be a part): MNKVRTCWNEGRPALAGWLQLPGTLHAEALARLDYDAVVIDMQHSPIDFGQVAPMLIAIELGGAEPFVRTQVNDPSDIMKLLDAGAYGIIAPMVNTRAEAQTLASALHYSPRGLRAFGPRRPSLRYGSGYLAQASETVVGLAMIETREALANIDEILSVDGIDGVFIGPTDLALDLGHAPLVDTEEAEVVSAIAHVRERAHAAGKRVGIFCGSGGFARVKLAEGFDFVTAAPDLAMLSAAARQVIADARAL
T4 sequence (A0A9J9HGY6 whole entry, the tested form may be a part): as the sequence (A0A9J9HGY6 whole entry S116A, the tested form may be a part) above, with A116S counted along it
T2 sequence (A0A9J9HGY6 whole entry S116C, the tested form may be a part): as the sequence (A0A9J9HGY6 whole entry S116A, the tested form may be a part) above, with A116C counted along it
T1 sequence (A0A9J9HGY6 whole entry F210W, the tested form may be a part): as the sequence (A0A9J9HGY6 whole entry S116A, the tested form may be a part) above, with A116S, F210W counted along it

For the compound `O=C(O)C(=O)CO` [hydroxypyruvate], in assay [1], the “X-ray crystal structure, 1.2 A, soaked crystal” value is “crystal structure of variant F210W soaked with MgCl2 and hydroxypyruvate could now be solved”. Besides, the Tm in assay [2] amounted to 73 °C. Moreover, the X-ray crystal structure entry in assay [3] is recorded as “showed a strangely distorted geometry (Figure S13, S116A‐HPA PDBID 7NNK)”.

As for `O=C[C@H](O)CO` [D-glyceraldehyde], the X-ray crystal structure entry in assay [4] is “Close‐up view of the active site of SwHKA with DGA bound (PDBID 8ADQ)”.

The record behind these values is paper PMC10099721, “Substrate Induced Movement of the Metal Cofactor between Active and Resting State” (Angewandte Chemie (International Ed. in English), 2022).
